19 molecules from patent publication US20170249408A1, “Antiperspirant and Deodorant Compositions Comprising Malodor Reduction Compositions” (The Procter & Gamble Company, priority 2015, published 2017) can be followed below.

The test in a line: Blocker Index (BI), expert graders, isovaleric acid malodorous swatch. Details: key: Blocker Index, expert-graded scale 0 to 3 (0 = clean swatch anchor). From the text: Blocker materials suitable for use in consumer products of the present invention are chosen for their ability to decrease malodor, while not interfering with perception of a fragrance. Material selection is done by assigning two indices to a test sample material from two reference scales in order to rank odor strengths. The two reference scales are the Fragrance Fidelity Index (FFI) scale and the Blocker Index (BI) scale. The FFI ranks the ability of the test sample material to impart a perceivable odor which could cause interference when combined with another fragrance and the BI ranks the ability of the test sample material to reduce malodor perception. The two methods for assigning the indices to a test sample on the FFI and the BI reference scales are given below.
The first step in the method for assigning a BI to a test sample material on the BI reference scale is to create the BI reference swatches. […] Fabric swatches for this test are white knit polycotton (4 inch×4 inch) swatches from EMC ordered as PC 50/50. The supplier is instructed to strip the swatches first, stripping involves washing twice with a fragrance-free detergent and rinsing three times.
The BI scale contains one clean swatch with no malodor applied. […] These solutions are pipetted to the middle of the swatches. […] After drying for 30 minutes in a vented hood, the swatches are wrapped in aluminum foil to prevent odor contamination to the treated swatch. A clean untreated swatch is also included as the lowest anchor point of reference for malodor strength on the BI scale. The BI reference scale swatches should be used within 0.5 to 12 hours and discarded after 12 hours. The swatches are used as scale anchor points when graders evaluate a test sample(s) and are assigned a Blocker Index (BI) as show in Table 12.
The perfumer/expert grader is asked to rank order swatches according to a scale between 0 and 3.
To evaluate the BI, the test material is applied to a malodorous swatch to determine how well the test material blocks the malodor. […] After drying the malodorous swatch a known concentration of test material solution, between 1 ppm and 100 ppm is pipetted onto the malodorous swatch. […] It is sometimes necessary to evaluate several levels of the test material between about 1 and about 100 ppm to determine the BI.
At least two perfumers/expert graders are used to assign the BI to the test sample. […] The test sample swatch is assigned a BI at or between numbers on the BI in table.

Setting [1] is: Conc 10 ppm of test material on isovaleric acid malodorous swatch.
Where [2] appears, read: Conc 50 ppm of test material on isovaleric acid malodorous swatch.
[3] abbreviates: test material Conc 10 ppm on isovaleric acid swatch.
The mark [4] stands for this setting: test material Conc 50 ppm on isovaleric acid swatch.

Molecule `O=C1CCC2CCCCC2O1` (stereo not shown) [3,4,4a,5,6,7,8,8a-octahydrochromen-2-one] yielded a BI under setting [1] of 2.0 and a BI under setting [2] of 2.0.

With `CC1CCC2(C(C)C)CC(C)OC2C1` (stereo not shown) [4,8-dimethyl-1-(methylethyl)-7-oxybiciclo[4.3.0]nonane], the BI is reported as 2.0 under setting [3] and 2.2 under setting [4].

Regarding `CC(C)(C)C1CCCCC1` [4-tert-butyl cyclohexane], the BI is 2.0 under setting [1] and 2.0 under setting [2].

Consider `CCC(=O)OC1CC2C3C=CCC3C1C2(C)C` (stereo not shown) [8,8-dimethyl-3a,4,5,6,7,7a-hexahydro-1H-4,7-methanoinden-6-yl propionate], for which the BI runs as follows: under setting [3], 1.5; under setting [4], 2.2.

`CCCCCCCCCCCCCCCC(=O)OC` [Material 109] had a BI under setting [1] of 2.0.

Take `CCCCCCCCCCCCO` [Material 174]: under setting [2], the BI stood at 2.3.

`CC(=O)OCCCCCCC(C)C` [Material 204]: the BI by setting is: under setting [1], 2.0; under setting [2], 2.7.

In the case of `CC1(C)CCc2ccc(CCC=O)cc21` [Material 261, 3-(3,3-dimethyl-2,3-dihydro-1H-inden-5-yl)propanal], the BI came to 1.5 under setting [3] and 2.7 under setting [4].

As to `CC1(C)CCc2ccc(CCC=O)cc21` [Material 261], the BI by setting is: under setting [1], 1.8; under setting [2], 1.3.

Turning to `CC(=O)OC1CC2CC1C1CC=CC21` (stereo not shown) [Material 281], the BI reads like this: under setting [1], 2.0; under setting [2], 2.0.

`CCCCCCCCCCCC(=O)OCC` [Material 391] had a BI under setting [2] of 2.2.

Under setting [2], `C=CC(C)=CCC=C(C)C` [Material 524] registered a BI of 2.8.

Consider `CCC(O)COC1CCCCC1C(C)(C)C` (stereo not shown) [Material 677], for which the BI runs as follows: under setting [1], 2.3; under setting [2], 2.0.

In the case of `CC(CCO)CCc1ccccc1` (stereo not shown) [Material 962], the BI amounted to 2.3 under setting [1] and 1.7 under setting [2].

For `CCOC(=O)OC1C(C)CCC(C)C1C` (stereo not shown) [Material 1005], under setting [2], the BI is 2.6.

Consider `COC(=O)OC1CC/C=C\CCC1` (stereo not shown) [Material 1139], for which the BI reads like this: under setting [1], 2.0; under setting [2], 2.7.

Molecule `C=C1CCC2OC2(C)CCC2C1CC2(C)C` (stereo not shown) [Material 1148] gave a BI under setting [2] of 2.3.

As for `CC1(C)C2CCC3(C2)C1C(=O)CCC3(C)C` (stereo not shown) [Material 1149], the BI is on record as 1.5 under setting [1] and 2.3 under setting [2].

Take `CCCCCCCCCCCO` [Undecanol]: the BI under setting [2] is on record as 2.3.
